Tests used:
Experiment in all cases: Cell viability assay (ATPlite)
Assay type in all cases: cell-based
RL = details: Homo sapiens; RL cell line, 72 hours incubation
How it was run: (§1)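 Cells grew 24 h, then received 9-point √10-fold compound series in duplicate (0.4% DMSO final) for 72 h. ATP content was read by ATPlite luminescence and normalized to vehicle controls as % viability. IC50 came from a four-parameter logistic fit; curves with F-value above 1.5 were invalidated, with IC50 then set at the top concentration.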

A-498 = details: Homo sapiens, A498; A-498 cell line, 72 hours incubation
How it was run: as §1

AP-1060 = details: Homo sapiens; AP-1060 cell line, 72 hours incubation
How it was run: as §1

HT-29 = details: Homo sapiens; HT-29 cell line, 72 hours incubation
How it was run: as §1

RPMI-7951 = details: Homo sapiens; RPMI-7951 cell line, 72 hours incubation
How it was run: as §1

T98G = details: Homo sapiens; T98G cell line, 72 hours incubation
How it was run: as §1

BT-474 = details: Homo sapiens; BT-474 cell line, 72 hours incubation
How it was run: as §1

COLO 205 = details: Homo sapiens; COLO 205 cell line, 72 hours incubation
How it was run: as §1

SW480 = details: Homo sapiens; SW480 cell line, 72 hours incubation
How it was run: as §1

5637 = details: Homo sapiens; 5637 cell line, 72 hours incubation
How it was run: as §1

MDA-MB-453 = details: Homo sapiens; MDA-MB-453 cell line, 72 hours incubation
How it was run: as §1

786-O = details: Homo sapiens, 786-0; 786-O cell line, 72 hours incubation
How it was run: as §1

HEC-6 = details: Homo sapiens; HEC-6 cell line, 72 hours incubation
How it was run: as §1

MV4-11 = details: Homo sapiens; MV4-11 cell line, 72 hours incubation
How it was run: as §1

DoHH2 = details: Homo sapiens, DOHH-2; DoHH2 cell line, 72 hours incubation
How it was run: as §1

U-118MG = details: Homo sapiens; U-118MG cell line, 72 hours incubation
How it was run: as §1

BxPC-3 = details: Homo sapiens; BxPC-3 cell line, 72 hours incubation
How it was run: as §1

VA-ES-BJ = details: Homo sapiens; VA-ES-BJ cell line, 72 hours incubation
How it was run: as §1

Hep-G2 = details: Homo sapiens, HepG2; Hep-G2 cell line, 72 hours incubation
How it was run: as §1

BT-549 = details: Homo sapiens; BT-549 cell line, 72 hours incubation
How it was run: as §1

DU145 = details: Homo sapiens, DU-145; DU145 cell line, 72 hours incubation
How it was run: as §1

MOLT-4 = details: Homo sapiens; MOLT-4 cell line, 72 hours incubation
How it was run: as §1

KLE = details: Homo sapiens; KLE cell line, 72 hours incubation
How it was run: as §1

NCI-H2052 = details: Homo sapiens; NCI-H2052 cell line, 72 hours incubation
How it was run: as §1

TT = details: Homo sapiens; TT cell line, 72 hours incubation
How it was run: as §1

NCI-H661 = details: Homo sapiens; NCI-H661 cell line, 72 hours incubation
How it was run: as §1

A-388 = details: Homo sapiens; A-388 cell line, 72 hours incubation
How it was run: as §1

SW48 = details: Homo sapiens; SW48 cell line, 72 hours incubation
How it was run: as §1

EoL-1 = details: Homo sapiens, EOL1; EoL-1 cell line, 72 hours incubation
How it was run: as §1

NCI-H226 = details: Homo sapiens; NCI-H226 cell line, 72 hours incubation
How it was run: as §1

LoVo = details: Homo sapiens; LoVo cell line, 72 hours incubation
How it was run: as §1

MeWo = details: Homo sapiens; MeWo cell line, 72 hours incubation
How it was run: as §1

`O=C(c1ccc(Oc2ccccc2)cc1Cl)c1c[nH]c2ncnc(N[C@@H]3CC[C@@H](CO)OC3)c12` [nemtabrutinib] was tested, and the IC50 (RL) was 4.06 µM, the IC50 (A-498) was 6.4 µM and the IC50 (AP-1060) was 0.736 µM. For the same compound, the IC50 (HT-29) was 0.369 µM, the IC50 (RPMI-7951) was 2.22 µM and the IC50 (T98G) was 4.52 µM. The IC50 (BT-474) was 3.11 µM, the IC50 (COLO 205) was 0.654 µM and the IC50 (SW480) was 3.34 µM. It also gave an IC50 5637 of 3.46 µM, an IC50 (MDA-MB-453) of 5.32 µM and an IC50 (786-O) of 6.71 µM. It also gave an IC50 (HEC-6) of 22.3 µM, an IC50 (MV4-11) of 1.35 µM and an IC50 (DoHH2) of 0.486 µM. It also gave an IC50 (U-118MG) of 12.9 µM, an IC50 (BxPC-3) of 2.61 µM and an IC50 (VA-ES-BJ) of 7.98 µM. It also gave an IC50 (Hep-G2) of 0.979 µM, an IC50 (BT-549) of 8.07 µM and an IC50 (DU145) of 1.64 µM. The IC50 (MOLT-4) was 6.87 µM, the IC50 (KLE) was 2.11 µM and the IC50 (NCI-H2052) was 5.24 µM. The IC50 (TT) was 5.33 µM, the IC50 (NCI-H661) was 2.38 µM and the IC50 (A-388) was 5.33 µM. The IC50 (SW48) was 0.445 µM, the IC50 (EoL-1) was 0.059 µM and the IC50 (NCI-H226) was 4.62 µM. The IC50 (LoVo) was 2.36 µM and the IC50 (MeWo) was 10.2 µM.

— publication PMC12586182 (Frontiers in Oncology, 2025)
